Experiments:
hamsters = experiment: Olfactory discrimination: latency to find hidden sunflower seeds; type: in vivo, Syrian golden hamsters (Mesocricetus auratus); settings: 50 μg/kg
Experimental: Sixteen animals were treated with vehicle or 50 μg/kg Mox and tested for olfactory discrimination by measuring their latency to find hidden sunflower seeds (FIG. 5). The injections were counterbalanced with each animal receiving each treatment. Prior to testing animals were fasted for 24 hrs. Ninety minutes after injection animals were briefly taken from their home cage while six sunflower seeds were buried under the bedding in one corner. Animals were placed back into their home cage and scored for the latency to find the seeds in a ten min observation period. […] In fact, not one of the sixteen animals consumed all of the seeds following saline as compared to all animals treated with Mox.
Six animals received an intracerebroventricular injection of vehicle or 1 mg/kg PPP and tested for olfactory discrimination by measuring their latency to find hidden sunflower seeds (FIG. 16). The injections were counterbalanced with each animal receiving each treatment. Prior to testing animals were fasted for 24 hrs. Sixty min. After injection animals were briefly taken from their home cage while six sunflower seeds were buried under the bedding in one corner. Animals were placed back into their home cage and scored for the latency to find the seeds in a five min. Observation period.

[1] = tested on: Corticotropin Releasing Factor receptor; experiment: NOVASCREEN CRF binding assay; settings: 100 nM
Experimental: [table] Corticotropin releasing hormone (CRH or CRF as shown on the following page) is a critical neurohormone in the regulation of stress. Since Mox suppresses impulsivity, aggression, and anxiety while enhancing learning and memory it may be acting to reduce stress. For this reason, Mox was tested by NOVASCREEN in a CRF binding assay.

CO[C@@]1(NC(=O)C(C(=O)O)c2ccc(O)cc2)C(=O)N2C(C(=O)O)=C(CSc3nnnn3C)CO[C@@H]21 (stereo partly drawn) [Mox, 7-β-[2-carboxy-2-(4-hydroxyphenyl)acetamido]-7α-methoxy-3-[[(1-methyl-1H-tetrazol-5-yl)thio]methyl]-1-oxa-1-dethia-3-cephem-4-carboxylic acid]
time to consume all seeds (hamsters): less than five
latency to find the seed (hamsters; 90 min, fasted 24 hrs): significantly (p<0.001) reduced
effect in the CRF binding assay [1]: no effect

Reference: patent US7842683B2, “Neurotherapeutic compositions and method” (Revaax Pharmaceuticals, LLC, priority 1999, dated 2010)
